pIC50: −log10 of the molar value. Active and inactive are the calls of the source. The rule behind the calls is not given here.
Assays:
HeLa [1] = assay: Cytotoxic activity against human HeLa cells; type: cell-based
HL-60 [2] = assay: Cytotoxic activity against human HL60 cells; type: cell-based
[3] = Cytotoxicity against human HepG2 cells after 96 hrs by CCK8 assay; type: cell-based
THP-1 = assay: Cytotoxicity against human THP1 cells after 96 hrs by CCK8 assay; type: cell-based; conditions: THP-1, 96 h
dengue virus type 2 = assay: Antiviral activity against Dengue virus 2 NGC infected in human HuH7-Ehr2 cells after 48 hrs by luciferase reporter gene assay; type: functional, organism-based; conditions: Huh-7, 48 h
Hepatitis C virus = assay: Antiviral activity against Hepatitis C virus; type: functional, organism-based; conditions: Hepacivirus hominis
HeLa [4] = assay: Cytostatic activity against human HeLa cells; type: cell-based
CCRF-CEM [5] = assay: Cytotoxic activity against human CCRF-CEM cells; type: cell-based
HL-60 [6] = assay: Cytostatic activity against human HL60 cells; type: cell-based
CCRF-CEM [7] = assay: Cytostatic activity against human CCRF-CEM cells; type: cell-based

| Structure (SMILES) | Activity (HeLa [1]) | Activity (HL-60 [2]) | CC50 at 96 h [3] | pIC50 (THP-1) | pIC50 (dengue virus type 2) | Activity (Hepatitis C virus) | Activity (HeLa [4]) | Activity (CCRF-CEM [5]) | Activity (HL-60 [6]) | Activity (CCRF-CEM [7]) |
| --- | --- | --- | --- | --- | --- | --- | --- | --- | --- | --- |
| OC[C@H]1O[C@@H](n2c3ccc(Cl)cc3c3c(-c4ccccc4)ncnc32)[C@H](O)[C@@H]1O | Non-toxic | Non-toxic | > 50 µM | < 4.30 | 4.58 | inactive | Non-toxic | Non-toxic | Non-toxic | Non-toxic |
| OC[C@H]1O[C@@H](n2c3ccc(Cl)cc3c3c(-c4cc5ccccc5o4)ncnc32)[C@H](O)[C@@H]1O | Non-toxic | Non-toxic | > 50 µM | < 4.30 | 6.01 | inactive | Non-toxic | Non-toxic | Non-toxic | Non-toxic |
| OC[C@H]1O[C@@H](n2c3ccc(Cl)cc3c3c(-c4ccoc4)ncnc32)[C@H](O)[C@@H]1O | Non-toxic | Non-toxic | > 50 µM | < 4.30 | 4.61 | inactive | Non-toxic | Non-toxic | Non-toxic | Non-toxic |
| OC[C@H]1O[C@@H](n2c3ccc(-c4ccco4)cc3c3c(-c4ccco4)ncnc32)[C@H](O)[C@@H]1O | Non-toxic | Non-toxic | 7.44 µM | < 4.30 | 4.75 | inactive | Non-toxic | Non-toxic | Non-toxic | Non-toxic |
| OC[C@H]1O[C@@H](n2c3ccc(Cl)cc3c3c(-c4ccco4)ncnc32)[C@H](O)[C@@H]1O | Non-toxic | Non-toxic | 0.175 µM | 5.81 | 6.62 | inactive | Non-toxic | Non-toxic | Non-toxic | Non-toxic |
| OC[C@H]1O[C@@H](n2c3ccc(-c4ccoc4)cc3c3c(-c4ccco4)ncnc32)[C@H](O)[C@@H]1O | Non-toxic | Non-toxic | 33.1 µM | 4.35 | 4.49 | inactive | Non-toxic | Non-toxic | Non-toxic | Non-toxic |
| OC[C@H]1O[C@@H](n2c3ccc(Cl)cc3c3c(-c4cccs4)ncnc32)[C@H](O)[C@@H]1O | Non-toxic | Non-toxic | 19.9 µM | 4.34 | 6.47 | inactive | Non-toxic | Non-toxic | Non-toxic | Non-toxic |
| OC[C@H]1O[C@@H](n2c3ccc(Cl)cc3c3c(-c4ccsc4)ncnc32)[C@H](O)[C@@H]1O | Non-toxic | Non-toxic | > 50 µM | < 4.30 | 4.06 | inactive | Non-toxic | Non-toxic | Non-toxic | Non-toxic |
| OC[C@H]1O[C@@H](n2c3ccccc3c3c(-c4ccco4)ncnc32)[C@H](O)[C@@H]1O | Non-toxic | Non-toxic | > 50 µM | < 4.30 | 4.08 | inactive | Non-toxic | Non-toxic | Non-toxic | Non-toxic |
| OC[C@H]1O[C@@H](n2c3ccc(-c4ccccc4)cc3c3c(-c4ccco4)ncnc32)[C@H](O)[C@@H]1O | Non-toxic | Non-toxic | 20.7 µM | 4.38 | 5.54 | inactive | Non-toxic | Non-toxic | Non-toxic | Non-toxic |

— ChEMBL document CHEMBL2146393, “Synthesis and antiviral activity of 4,6-disubstituted pyrimido[4,5-b]indole ribonucleosides” (Bioorg Med Chem, 2012)
